According to patent publication US7763463B2, “Use of cyclic AMP and ascorbic acid to produce dopaminergic neurons from embryonic stem cells” (Geron Corporation, priority 2000, dated 2010):

Key:
Format in all cases: cell-based, human
hES cell derived neurons = assay: Fura-2 imaging of calcium flux; conditions: of the 53 cells tested; cells responding to GABA, acetylcholine, ATP and elevated potassium; 0.5 mM neurotransmitter, ATP 10 μM
Description: Standard fura-2 imaging of calcium flux was used to investigate the functional properties of the hES cell derived neurons. Neurotransmitters studied included GABA, glutamate (E), glycine (G), elevated potassium (50 mM K^+ instead of 5 mM K^+), ascorbic acid (control), dopamine, acetylcholine (ACh) and norepinephrine. The solutions contained 0.5 mM of the neurotransmitter (except ATP at 10 μM) in rat Ringers (RR) solution: 140 mM NaCl, 3 mM KCl, 1 mM MgCl2, 2 mM CaCl2, 10 mM HEPES buffer, and 10 mM glucose. External solutions were set to pH 7.4 using NaOH. Cells were perfused in the recording chamber at 1.2-1.8 mL/min, and solutions were applied by bath application using a 0.2 mL loop injector located ˜0.2 mL upstream of the bath import. Transient rises in calcium were considered to be a response if the calcium levels rose above 10% of the baseline value within 60 sec of application, and returned to baseline within 1-2 min.

[1] = tested on: embryoid bodies from hES cells; assay: Embryoid bodies with or without retinoic acid, then NT-3/BDNF; MAP-2 staining; conditions: embryoid bodies maintained in 10 μM RA 4 days; then mitogens, then 10 ng/mL NT-3 and BDNF; without RA ~5%
Description: To generate terminally differentiated neurons, the first stage of differentiation was induced by forming embryoid bodies in FBS medium with or without 10 μM retinoic acid (RA). After 4 days in suspension, embryoid bodies were plated onto fibronectin-coated plates in defined medium supplemented with 10 ng/mL human EGF, 10 ng/mL human bFGF, 1 ng/mL human PDGF-AA, and 1 ng/mL human IGF-1. The embryoid bodies adhered to the plates, and cells began to migrate onto the plastic, forming a monolayer.
The cell populations were further differentiated by replating the cells in a medium containing none of the mitogens, but containing 10 ng/mL Neurotrophin-3 (NT-3) and 10 ng/mL brain-derived neurotrophic factor (BDNF). Neurons with extensive processes were seen after about 7 days. […] GaIC positive cells were identified, but the cells were large and flat rather than having complex processes.

hES cells of the H7 line = assay: Direct differentiation: noggin, follistatin and retinoic acid (FIG. 6); conditions: 15 days with Treatment D, cAMP 700 μg; antagonists used for varying time periods
Text: Noggin is apparently important at about the 1 week point (days 5 to 8), while follistatin is important at around the 2 week point (days 13 to 15), maximizing production of mature neurons rather than small neurites.
Virtually no β-tubulin positive neurons were formed in the absence of noggin or follistatin. […] It is hypothesized that initial noggin/follistatin induction generates a neural progenitor cell, which subsequently can be induced to form neurons by the addition of other factors.
Cells were differentiated according to treatment F as previously (left 2 bars) or omitting retinoic acid (right 2 bars).

hES cells = assay: Effect of neurotrophins on direct differentiation, β-tubulin positive cell count; conditions: 7 days of differentiation; BDNF 10 ng/mL, neurotrophin-3 1 ng/mL
Description: The effect of several members of the neurotrophin growth factor family was examined. hES cells were differentiated by harvesting with collagenase, dissociating, and reseeding onto poly-ornithine coated cover slips. The cells were plated into DMEM/F12+N2+10% FBS overnight. The following day, the serum was removed from the medium and replaced with 10 ng/mL human bFGF and the growth factor being tested. After 24 hours, bFGF was removed from the medium. These cultures were fed every other day. They were fixed after 7 days of differentiation and immunostained for analysis. The number of neurons was evaluated by counting cells positive for β-tubulin. Cultures maintained in the presence of 10 ng/mL brain derived neurotrophic factor (BDNF) formed approximately 3-fold more neurons than the control cultures. Cultures maintained in neurotrophin-3 (1 ng/mL) formed approximately 2-fold more neurons than control cultures.

NCCCC(=O)O [GABA, γ-amino butyric acid]
cells that responded (calcium rise) (hES cell derived neurons): 26

CC(=O)OCC[N+](C)(C)C [acetylcholine]
cells that responded (calcium rise) (hES cell derived neurons): 26

CC1=C(/C=C/C(C)=C/C=C/C(C)=C/C(=O)O)C(C)(C)CCC1 [retinoic acid]
MAP-2 positive cells [1]: ~26%

Nc1ncnc2c1ncn2[C@@H]1O[C@H](COP(=O)(O)OP(=O)(O)OP(=O)(O)O)[C@@H](O)[C@H]1O [ATP]
cells that responded (calcium rise) (hES cell derived neurons): 26

B1: noggin: TGF-β superfamily antagonist (protein, UniProt Q13253 28-232, looked up)
Noggin: QHYLHIRPAPSDNLPLVDLIEHPDPIFDPKEKDLNETLLRSLLGGHYDPGFMATSPPEDRPGGGGGAAGGAEDLAELDQLLRQRPSGAMPSEIKGLEFSEGLAQGKKQRLSKKLRRKLQMWLWSQTFCPVLYAWNDLGSRFWPRYVKVGSCFSKRSCSVPEGMVCKPSKSVHLTVLRWRCQRRGGQRCGWIPIQYPIISECKCSC
contribution to neuron differentiation (hES cells of the H7 line): contribute to neuron differentiation, and work synergistically

B2: neurotrophin-3: member of the neurotrophin growth factor family (protein, UniProt P20783 139-257, looked up)
Neurotrophin-3: YAEHKSHRGEYSVCDSESLWVTDKSSAIDIRGHQVTVLGEIKTGNSPVKQYFYETRCKEARPVKNGCRGIDDKHWNSQCKTSQTYVRALTSENNKLVGWRWIRIDTSCVCALSRKIGRT
neurons formed (β-tubulin positive cells) relative to control cultures (hES cells): approximately 2 fold

B3: follistatin: TGF-β superfamily antagonist (protein, UniProt P19883 30-344, looked up)
Follistatin: GNCWLRQAKNGRCQVLYKTELSKEECCSTGRLSTSWTEEDVNDNTLFKWMIFNGGAPNCIPCKETCENVDCGPGKKCRMNKKNKPRCVCAPDCSNITWKGPVCGLDGKTYRNECALLKARCKEQPELEVQYQGRCKKTCRDVFCPGSSTCVVDQTNNAYCVTCNRICPEPASSEQYLCGNDGVTYSSACHLRKATCLLGRSIGLAYEGKCIKAKSCEDIQCTGGKKCLWDFKVGRGRCSLCDELCPDSKSDEPVCASDNATYASECAMKEAACSSGVLLEVKHSGSCNSISEDTEEEEEDEDQDYSFPISSILEW
contribution to neuron differentiation (hES cells of the H7 line): contribute to neuron differentiation, and work synergistically

B4: BDNF: brain derived neurotrophic factor, member of the neurotrophin growth factor family (protein, UniProt P23560 19-247, looked up)
Neurotrophic factor BDNF …: APMKEANIRGQGGLAYPGVRTHGTLESVNGPKAGSRGLTSLADTFEHVIEELLDEDQKVRPNEENNKDADLYTSRVMLSSQVPLEPPLLFLLEEYKNYLDAANMSMRVRRHSDPARRGELSVCDSISEWVTAADKKTAVDMSGGTVTVLEKVPVSKGQLKQYFYETKCNPMGYTKEGCRGIDKRHWNSQCRTTQSYVRALTMDSKKRIGWRFIRIDTSCVCTLTIKRGR
neurons formed (β-tubulin positive cells) relative to control cultures (hES cells): approximately 3 fold
